Key:
[1] = Waking body weight with daily ketone ester consumption in a person with obesity; type: in vivo, human; conditions: for Weight (waking body weight): daily 25 g KE
Method: This example describes the effect of daily ketone ester consumption in a person with obesity (BMI=42.5 kg/m^2). The subject began consuming one 25 g serving of KE each morning on Nov. 15, 2021, and maintained daily consumption each morning for 7 weeks. The KE was in a commercially available consumer-friendly beverage formulation (Juvenescence, NJ, USA). Body weight was recorded by the subject after waking each morning (see, e.g., Table 1 and FIG. 3). […] The highest body weight in this period was on Nov. 15, 2021 (288 lbs), and the lowest was on Day Dec. 21, 2021 (254 lbs), giving a total weight loss of 34 lbs (11.8% of starting body mass)

[2] = Body weight of mice swapped to a diet containing 20% KE; type: in vivo, C57/BL6 mice; conditions: diet containing 20% KE (by weight); n=5 female
From the text: Male (n=10) and female (n=10) C57/BL6 mice were fed control diet for one week. The next week n=5 male and n=5 female mice were swapped to a diet containing 20% KE (by weight) mixed into a custom-made diet.

[3] = 25 g KE each morning, highest to lowest body weight

## CCCCCC(=O)OCC[C@@H](C)OC(=O)CCCCC [KE, bis hexanoyl (R)-1,3-butanediol]
[1]; 25 g KE each morning, Dec. 21, 2021
  lowest body weight in this period: 254 lbs
[1]; 25 g KE each morning, Nov. 15, 2021
  highest body weight in this period: 288 lbs
[1]; [3]
  total weight loss: 34 lbs
  total weight loss, % of starting body mass: 11.8%
[1]; 1 Dec. 2021
  Weight (waking body weight): 272.5 lbs
[1]; 1 Jan. 2022
  Weight (waking body weight): 258 lbs
[1]; 2 Dec. 2021
  Weight (waking body weight): 272.5 lbs
[1]; 2 Jan. 2022
  Weight (waking body weight): 257 lbs
[1]; 3 Dec. 2021
  Weight (waking body weight): 272 lbs
[1]; 3 Jan. 2022
  Weight (waking body weight): 255.5 lbs
[1]; 4 Dec. 2021
  Weight (waking body weight): 271 lbs
[1]; 4 Jan. 2022
  Weight (waking body weight): 255.5 lbs
[1]; 5 Dec. 2021
  Weight (waking body weight): 270 lbs
[1]; 5 Jan. 2022
  Weight (waking body weight): 256 lbs
[1]; 6 Dec. 2021
  Weight (waking body weight): 268.5 lbs
[1]; 7 Dec. 2021
  Weight (waking body weight): 267.5 lbs
[1]; 8 Dec. 2021
  Weight (waking body weight): 267 lbs
[1]; 9 Dec. 2021
  Weight (waking body weight): 266 lbs
[1]; 10 Dec. 2021
  Weight (waking body weight): 265.5 lbs
[1]; 11 Dec. 2021
  Weight (waking body weight): 264.5 lbs
[1]; 12 Dec. 2021
  Weight (waking body weight): 264 lbs
[1]; 13 Dec. 2021
  Weight (waking body weight): 262.5 lbs
[1]; 14 Dec. 2021
  Weight (waking body weight): 261.5 lbs
[1]; 15 Dec. 2021
  Weight (waking body weight): 260.5 lbs
[1]; 15 Nov. 2021
  Weight (waking body weight): 288 lbs
[1]; 16 Dec. 2021
  Weight (waking body weight): 258 lbs
[1]; 16 Nov. 2021
  Weight (waking body weight): 286.5 lbs
[1]; 17 Dec. 2021
  Weight (waking body weight): 256 lbs
[1]; 17 Nov. 2021
  Weight (waking body weight): 284 lbs
[1]; 18 Dec. 2021
  Weight (waking body weight): 256 lbs
[1]; 18 Nov. 2021
  Weight (waking body weight): 283 lbs
[1]; 19 Dec. 2021
  Weight (waking body weight): 255 lbs
[1]; 19 Nov. 2021
  Weight (waking body weight): 283 lbs
[1]; 20 Dec. 2021
  Weight (waking body weight): 255 lbs
[1]; 20 Nov. 2021
  Weight (waking body weight): 282.5 lbs
[1]; 21 Dec. 2021
  Weight (waking body weight): 254 lbs
[1]; 21 Nov. 2021
  Weight (waking body weight): 281.5 lbs
[1]; 22 Dec. 2021
  Weight (waking body weight): 256 lbs
[1]; 22 Nov. 2021
  Weight (waking body weight): 279.5 lbs
[1]; 23 Dec. 2021
  Weight (waking body weight): 258 lbs
[1]; 23 Nov. 2021
  Weight (waking body weight): 279 lbs
[1]; 24 Dec. 2021
  Weight (waking body weight): 257 lbs
[1]; 24 Nov. 2021
  Weight (waking body weight): 278 lbs
[1]; 25 Dec. 2021
  Weight (waking body weight): 258 lbs
[1]; 25 Nov. 2021 (first line of this date)
  Weight (waking body weight): 278 lbs
[1]; 25 Nov. 2021 (second line of this date)
  Weight (waking body weight): 276.5 lbs
[1]; 26 Dec. 2021
  Weight (waking body weight): 260 lbs
[1]; 26 Nov. 2021
  Weight (waking body weight): 275 lbs
[1]; 27 Dec. 2021
  Weight (waking body weight): 258 lbs
[1]; 27 Nov. 2021
  Weight (waking body weight): 275 lbs
[1]; 28 Dec. 2021
  Weight (waking body weight): 257 lbs
[1]; 28 Nov. 2021
  Weight (waking body weight): 273.5 lbs
[1]; 29 Dec. 2021
  Weight (waking body weight): 258 lbs
[1]; 29 Nov. 2021
  Weight (waking body weight): 273 lbs
[1]; 30 Dec. 2021
  Weight (waking body weight): 260.5 lbs
[1]; 30 Nov. 2021
  Weight (waking body weight): 273 lbs
[1]; 31 Dec. 2021
  Weight (waking body weight): 260 lbs
[2]
  deaths: Two female animals died due to rapid weight loss
